This is an account of results in US20240102060A1, “ENZYMES AND METHODS FOR FERMENTATIVE PRODUCTION OF MONOTERPENE ESTERS” (ISOBIONICS B.V., priority 2020, published 2024).

Substitutions are numbered along the chain they refer to.

The chains are these.
B1: AAT9-1-c: alcohol acyl transferase (AAT) from Citrus bergamia, variant AAT9-1-c, amino acid sequence SEQ ID NO: 2 (protein, listed as Citrus bergamia)
chain: MKIDVETISREMIKPSTPTPNHLRHYQFSHLDQIGPPFYISLLYFYHLDDDKLVSNNRHLFSDSLKSSLSNVLTKYYPLAGRIKNNYVDCNDEGVFFSEAKVSCQLSEIINEPEFPSEFKKLLPFDQEKDVVSFDSLAIAIQVNMFNCGNVAVAVMISHKIADGSSLSTFTKNWAAAARGESENVFPEFVAARLFPPEDAGGGSGTSFDPRPKKVVLKKFLFEGSKITALRDKYGFDNRIYPTRVEALSAFLWSRLAASNRIKVSSERPCMLIHAVNLRKRVEPQLPADSFGNLFAFAVTVLDENDDDGMVNKFRDAISKIDKDYLKAKKVEHSELIDLGITNGEKFGGGELGYCIISSLCKFPVYEADFGLGKPTWVAWGCFPYKNVIHFIDAKSGDGIEVWVHLEKEVMAKFENDQELLAYVST
B2: AAT9-1-a: inactive variant of the alcohol acyl transferase from Citrus bergamia, Tryptophan at position 371, SEQ ID NO: 6 (protein, listed as Citrus bergamia)
chain: B1 chain with G371W
B3: AAT9-2-a: inactive variant of the alcohol acyl transferase from Citrus bergamia, SEQ ID NO: 8 (protein, listed as Citrus bergamia)
chain: MKISVETISREMIKPSTPTPNHLRHYHFSYLDQTAPPLYMSLLYFYHLDDHKLVSNNNHLFINSLKSSLSNVLTKYYPLAGRVKNNYVDCNDEGVVFSEAKVSCLLSEIINELPSEFNKLHPFDQEKDVVSINGLPIAIQVNMFNCGSVAIAVMIFHKIADAASLITFTKNWAAAARGGSGNVFPEFVAARLFPPQDAGGSSGVSVDPRPKKIVLKKFLFEGPKITALRDKYGLDNGIYPTRVEALSAFIWSRLAASTRIKISPERPYMLVHLVNLRKRMEPPLPDDSFGNIIGAAVTVLEENDDDDRMVNKFRDAICKVDKDYLKVMKLEHSELTDLVITNGEIVDRGELGYCFFSSLCKFPVYEADFGLGKPMWVAWGRLPYKNIIHLIDTKSGDGIEAWIHLEEEVMAKFGNDQELLAYVSP
B4: SEQ ID NO: 4: alcohol acyl transferase (AAT) from Lavandula angustifolia, internal designation 1461 (protein, listed as Lavandula angustifolia)
chain: MEIEILSKQSIKPSSLTPSQLRDFKLSFIDERIPPFYIPLILYYTFDEQTNVNQSEMSDRLKTSLADALAKFYPLAGRMKGQISVDCNDQGVLCTEAIANANVLDIVSSPDPLVLDKLIPYVTNGFVSSAQEQLAIQITSFNCGGISIGICFSHRIADASTLSSFIKYWAATACRDRISAVSPVFNSATLFPPRNTPDFTPNPTSPSVRPLAPNLVIKRFLFSSQSINAMKLEVSRNSRILNPTRVEVVTALIWNRCVVAKGIERSNRSVAYHTLNLRGKIPALSERSFGNLFQMIKVESEAETTWILLVEKLRSAFEGFDVKKQLLGEKGFENAKENFMEISQLLRAGNVEVFRFSSYCRLAVYEADFGWGKPVWVSNSCYRNKNCVFLFDSVGSRGGIEAWIVMSERDMERLEQDLEFKRFASF
B5: SEQ ID NO: 3: alcohol acyl transferase (AAT) from Lavandula angustifolia, internal designation 10056 (protein, listed as Lavandula angustifolia)
chain: MEIETRVISTEIIKPSSPTPKFLQNHRLSFLDQIAPPIFMPVVYFYESNTKFPNSQQSNHLKNSLSQVLTKFYPLAGRLVGNLYVDCDDGGVPFVEAEANFDLSQIITNPNPRNMSKFLPYNESHDFCMAVQATYFRCGGVAVGLLVSHKIADALSFFLFANFWSAVARSGEGGGGQPPKFDVATYFPPRDISGYEPSTGIMKEEITTRIFTFSDKKIAVLREKYAATGSGGDGDLPQRRPTRVEALSAFIWTRFINSTGVKSDPNKIYTVMHAVNLRTRTDPPLTEYHFGNISRLAIANPDVGESGVTDGGVELMQRVREAIKAVDGAYVADLKEGEKHLSLMREKMAQANKGELVSFSFTSLCRFPLYDADFGWGKPVWVGSAGFAYKNLVTFMDTRDGDGIEAWIHSRREDMEKFEVDLELQDFLSHDKSSLISLV

Tested on in one data set: not listed separately
The data set is described as follows: Conversion of linalool to linalyl acetate by E. coli BL21-RIL expressing Citrus bergamia AAT variants, GC FID. The data set is classed as cell-based. The note with it: dodecane with 5 mM linalool (racemic), overnight at 18° C. How it is done:
To this end, the three different variants, and an empty pACYC-DUET-1, were introduced into chemical competent E. coli BL21-RIL (Stratagene), by heat shock transformation, and selected on LB-agar with 1% glucose and […] chloramphenicol. Transformants were transferred to 5 ml LB liquid medium with 1% glucose and 50 ug/ml chloramphenicol and grown overnight at 37° C. and 250 rpm.
(§1) 200 μL of those cultures was transferred to 20 mL of LB medium with the appropriate antibiotic in a 100 mL Erlenmeyer flask, and incubated at 37° C., 250 rpm until the A600 was 0.4 to 0.6. […] The next day, dodecane layer was recovered by centrifugation (10 min at 8000×g), diluted in ethyl acetate and analysed by GC FID.
Consider B1, for which the “conversion of linalool to linalyl acetate” value (shortened to “conversion of linalool”) is listed as “linalool was converted to linalyl acetate”.

As for B2, the “conversion of linalool” value is listed as “could not be observed”.

Regarding B3, the “conversion of linalool” value was “could not be observed”.

Tested on in a further data set: not listed separately
The data set is described as follows: Initial test of Lavandula angustifolia alcohol acyl transferases on linalool.
Details: not given
Consider B4, for which the “linalool as a substrate” value is “may not prefer linalool as a substrate”.

For the molecule B5, the “linalool as a substrate” value was “may not prefer linalool as a substrate”.

For the next data set, the system named is AAT9-1-c (SEQ ID NO: 2). The data set is described as follows: Monoterpene and sesquiterpene alcohols tested in the presence of E. coli cells expressing AAT9-1-c. The data set is classed as cell-based. The note with it: E. coli cells expressing AAT9-1-c versus empty pACYCDUET-1. How it is done: as §1
On to `C[C@@H]1CC[C@H]2C(C)(C)[C@H]3C[C@@]12CC[C@@]3(C)O` [cedrol], for which the “conversion of the alcohol to its corresponding ester by AAT9-1-c” value (from here on “conversion of the alcohol”) is recorded as “not observed to be converted”.

Regarding `CC1=CC[C@@H](C(C)(C)O)CC1` [alpha terpineol], the “conversion of the alcohol” value is on record as “corresponding esters could be observed”.

On to `C=CC(C)(O)CCC=C(C)CCC=C(C)C` (stereo not drawn) [nerolidol], for which the “conversion of the alcohol” value was “not observed to be converted”.

On to `CC(C)=CCC[C@](C)(O)[C@@H]1CC=C(C)CC1` [(−)-alpha-bisabolol], for which the “conversion of the alcohol” value is reported as “not observed to be converted”.

Take `C[C@H]1CC[C@@]2(O)C(C)(C)[C@@H]3CC[C@@]2(C)[C@H]1C3` [patchoulol]: the “conversion of the alcohol” value was “not observed to be converted”.

With `CC1=CC(O)C2CC1C2(C)C` (stereo not drawn) [verbenol], the “conversion of the alcohol” value is on record as “corresponding esters could be observed”.

Take `CC(C)=CCC/C(C)=C/CO` [geraniol]: the “conversion of the alcohol” value is reported as “corresponding esters could be observed”.
